Assays:
Format in all cases: biochemical
human cathepsin L = human cathepsin L (Homo sapiens, UniProt P07711); test: Cathepsin L inhibition assay, enzyme from human liver tissue, Cbz-Phe-Arg-AMC; conditions: Table 2, human cathepsin L; read-out: h Cat L IC50
Protocol: (§1) All assays for cathepsin K were carried out with human and rat recombinant enzyme. Assays for cathepsins S ? V were also carried out with human recombinant enzyme. Assays for human cathepsins B, H, and L were carried out with enzyme, purchased from Athens Research and Technology, Inc., prepared from human liver tissue. Standard assay conditions for the determination of kinetic constants used a fluorogenic peptide substrate, typically (5S,8S)-13-amino-5-benzyl-13-imino-3-methylene-N-(4-methyl-2-oxo-2H-chromen-7-yl)-6-oxo-1-phenyl-2-oxa-4,7,12triazatridecane-8-carboxamide (Cbz-Phe-Arg-AMC), and were determined in 100 mM sodium acetate at pH 5.5 containing 10 mM dithiothreitol and 120 mM sodium chloride. […]
(§2) All assays contained 10% dimethyl sulfoxide. […] Product fluorescence (excitation at 360 nm; emission at 440 nm, (except cathepsin H which used excitation at 340 nm; emission at 420 nm)) was monitored with a PerSeptive Biosystems Cytofluor II fluorescence plate reader. […]
(§3) Potential inhibitors were evaluated using the progress curve method. […] For those compounds whose progress curves were linear, the enzymatic activity (RATE) was plotted against the concentration of test compound, including inhibitor concentration of zero ([I]=0), and the IC50 determined from a fit of equation 1 to the data, RATE=Vmax/(1+([I]/IC50)) (1) where Vmax is the best fit estimate of the maximal enzymatic activity. […]

rat cathepsin K = biological target: T1, rat cathepsin K (Rattus norvegicus, UniProt O35186); test: Cathepsin K inhibition assay, rat recombinant enzyme, fluorogenic substrate Cbz-Phe-Arg-AMC; conditions: Table 2, rat cathepsin K; read-out: r Cat K IC50
T1 construct: The proform of cathepsin K was converted to mature cathepsin K by brief exposure to pH 4; made in house; host or cells: baculovirus; Trichoplusia ni High Five cells (virus raised in Sf-9)
T1 sequence (O35186 115-329): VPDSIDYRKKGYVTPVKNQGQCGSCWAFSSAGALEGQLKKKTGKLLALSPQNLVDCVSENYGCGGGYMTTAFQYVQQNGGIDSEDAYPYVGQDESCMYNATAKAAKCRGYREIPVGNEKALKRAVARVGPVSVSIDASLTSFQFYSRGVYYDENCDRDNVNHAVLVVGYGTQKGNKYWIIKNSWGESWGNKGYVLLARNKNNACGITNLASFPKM
Protocol: as §1, §2
Protein Purification: Media (human and rat) were filtered through a Whatman 3 filter, and then loaded onto a 25 mL. […] The column was washed until the absorbance reached the baseline value, and then the protein was eluted with a linear gradient from 0-2 M sodium chloride in the equilibration buffer. Column fractions were analyzed by SDS-PAGE, N-terminal sequencing, and mass spectrometry. […]

human cathepsin B = human cathepsin B (Homo sapiens, UniProt P07858); test: Cathepsin B inhibition assay, enzyme from human liver tissue, Cbz-Phe-Arg-AMC; conditions: Table 2, human cathepsin B; read-out: h Cat B IC50
Protocol: as §1, §2, §3

human cathepsin V = human cathepsin V (Homo sapiens, UniProt O60911); test: Cathepsin V inhibition assay, human recombinant enzyme, Cbz-Phe-Arg-AMC; conditions: Table 2, human cathepsin V; read-out: h Cat V IC50
human cathepsin V, sequence (O60911 114-334): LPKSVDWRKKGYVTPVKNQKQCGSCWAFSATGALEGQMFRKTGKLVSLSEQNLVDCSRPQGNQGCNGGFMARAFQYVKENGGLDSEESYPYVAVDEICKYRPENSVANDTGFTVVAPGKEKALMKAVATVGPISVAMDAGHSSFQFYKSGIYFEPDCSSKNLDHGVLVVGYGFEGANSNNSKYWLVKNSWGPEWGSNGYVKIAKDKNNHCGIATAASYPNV
Protocol: as §1, §2, §3

human cathepsin S = human cathepsin S (Homo sapiens, UniProt P25774); test: Cathepsin S inhibition assay, human recombinant enzyme, Cbz-Val-Val-Arg-AMC; conditions: Table 2, human cathepsin S; read-out: h Cat S IC50
human cathepsin S, sequence (P25774 115-331): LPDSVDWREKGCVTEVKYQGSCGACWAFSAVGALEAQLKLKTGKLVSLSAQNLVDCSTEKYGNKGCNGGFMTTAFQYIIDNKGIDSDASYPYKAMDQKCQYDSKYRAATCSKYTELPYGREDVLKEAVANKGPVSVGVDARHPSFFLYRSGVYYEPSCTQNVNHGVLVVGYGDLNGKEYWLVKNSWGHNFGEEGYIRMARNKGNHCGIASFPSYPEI
Protocol: as §1, §2, §3

human cathepsin H = human cathepsin H (Homo sapiens, UniProt P09668); test: Cathepsin H inhibition assay, enzyme from human liver tissue, L-Arg-β-naphthalamide; conditions: Table 2, human cathepsin H; read-out: h Cat H IC50
human cathepsin H, sequence (P09668 116-335 limits assumed, other chains not shown): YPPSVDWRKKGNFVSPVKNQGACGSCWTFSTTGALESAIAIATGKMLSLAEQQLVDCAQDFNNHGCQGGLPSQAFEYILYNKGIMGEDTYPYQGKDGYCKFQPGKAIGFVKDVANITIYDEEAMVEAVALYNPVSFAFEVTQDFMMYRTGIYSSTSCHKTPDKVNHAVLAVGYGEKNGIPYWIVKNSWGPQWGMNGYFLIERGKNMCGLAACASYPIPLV
Protocol: as §1, §2, §3

human cathepsin L, sequence (P07711 114-333): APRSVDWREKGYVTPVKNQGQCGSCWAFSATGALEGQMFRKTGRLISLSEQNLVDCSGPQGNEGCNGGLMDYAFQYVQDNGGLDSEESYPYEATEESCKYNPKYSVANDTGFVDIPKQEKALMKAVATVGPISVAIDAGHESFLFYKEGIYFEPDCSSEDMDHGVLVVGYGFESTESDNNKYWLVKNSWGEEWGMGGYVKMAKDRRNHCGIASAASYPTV

| IC50 (human cathepsin L) | IC50 (rat cathepsin K) | IC50 (human cathepsin B) | IC50 (human cathepsin V) | IC50 (human cathepsin S) | IC50 (human cathepsin H) | Compound |
| --- | --- | --- | --- | --- | --- | --- |
| 100 to 1000 nM | 10 to 100 nM | 100 to 1000 nM | 10 to 100 nM | 1 to 10 nM | 100 to 1000 nM | CCCC[C@H](NC(=O)O[C@@H]1CN(C(=O)Nc2ccc(C(F)(F)F)cc2)CC1(C)C)C(=O)C(=O)Nc1ccn[nH]1 [Example 71, (3S)-4,4-dimethyl-1-{[4-(trifluoromethyl)anilino]carbonyl}pyrrolidinyl (1S)-1-[oxo(1H-pyrazol-5-ylamino)acetyl]pentylcarbamate] |
| 100 to 1000 nM | 10 to 100 nM | 100 to 1000 nM | 10 to 100 nM | 10 to 100 nM | 100 to 1000 nM | CCCC[C@H](NC(=O)O[C@@H]1CN(c2nnc(C(F)(F)F)s2)CC1(C)C)C(=O)C(=O)Nc1ccn[nH]1 [Example 82, (3S)-4,4-Dimethyl-1-[5-(trifluoromethyl)-1,3,4-thiadiazol-2-yl]pyrrolidinyl-(1S)-1-[oxo(1H-pyrazol-5-ylamino)acetyl]pentylcarbamate] |

From patent publication US7402606B2, “Derivatives of 1-(oxoaminoacetyl) pentylcarbamate as cathepsin K inhibitors for the treatment of bone loss” (SmithKline Beecham Corporation, priority 2002, dated 2008)
